From patent US3985764A, “Production of fused oxazoline azetidinones” (Queen's University, priority 1974, dated 1976)

System: S. lutea
Assay: antibacterial activity vs. S. lutea (plate assay)
Format: cell-based
Conditions: versus S. lutea

CC1(C)O[C@@H]2[C@H](N3C(=O)c4ccccc4C3=O)C(=O)N2[C@H]1C(=O)O [6-phthalimido oxapenicillin]
antibacterial activity relative to phthalimidopenicillin: one-tenth the level of phthalimidopenicillin
